According to ChEMBL document CHEMBL4507266, “Data for DCP probe BAY-784” (2021):

What was measured:
[1] = biological target: Mitogen-activated protein kinase 14 (Homo sapiens) (UniProt Q16539); test: Inhibition of Protein Serine/Threonine Kinase, MAPK14 (p38α) at 10 µM in the Eurofins-Panlabs enzyme assay (Eurofins_assay_176610); set-up: substrate with concentration; details: Compound concentration 10.0 uM
Caspase-1 (Homo sapiens) = Caspase-1 (Homo sapiens) (UniProt P29466); test: Inhibition of Peptidase, CASP1 (Caspase 1) at 10 µM in the Eurofins-Panlabs enzyme assay (Eurofins_assay_163000); details: Compound concentration 10.0 uM
Chain of Caspase-1 (Homo sapiens) (P29466 120-297 limits assumed): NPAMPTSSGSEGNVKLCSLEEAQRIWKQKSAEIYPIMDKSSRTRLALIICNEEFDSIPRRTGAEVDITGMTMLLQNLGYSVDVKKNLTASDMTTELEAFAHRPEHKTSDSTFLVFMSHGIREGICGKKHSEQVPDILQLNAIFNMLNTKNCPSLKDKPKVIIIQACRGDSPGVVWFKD
Chain of Caspase-1 (Homo sapiens) (P29466 317-404 limits assumed): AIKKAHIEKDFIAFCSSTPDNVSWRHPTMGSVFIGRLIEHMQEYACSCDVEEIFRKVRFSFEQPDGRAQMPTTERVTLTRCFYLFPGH

[2] = biological target: Interstitial collagenase (Homo sapiens) (UniProt P03956); test: Inhibition of Peptidase, Matrix Metalloproteinase-1 (MMP-1) at 10 µM in the Eurofins-Panlabs enzyme assay (Eurofins_assay_114110); details: Compound concentration 10.0 uM
[3] = biological target: Muscarinic acetylcholine receptor M4 (Homo sapiens) (UniProt P08173); details: Compound concentration 10.0 uM
Chain of Muscarinic acetylcholine receptor M4 (Homo sapiens) (P08173 whole entry): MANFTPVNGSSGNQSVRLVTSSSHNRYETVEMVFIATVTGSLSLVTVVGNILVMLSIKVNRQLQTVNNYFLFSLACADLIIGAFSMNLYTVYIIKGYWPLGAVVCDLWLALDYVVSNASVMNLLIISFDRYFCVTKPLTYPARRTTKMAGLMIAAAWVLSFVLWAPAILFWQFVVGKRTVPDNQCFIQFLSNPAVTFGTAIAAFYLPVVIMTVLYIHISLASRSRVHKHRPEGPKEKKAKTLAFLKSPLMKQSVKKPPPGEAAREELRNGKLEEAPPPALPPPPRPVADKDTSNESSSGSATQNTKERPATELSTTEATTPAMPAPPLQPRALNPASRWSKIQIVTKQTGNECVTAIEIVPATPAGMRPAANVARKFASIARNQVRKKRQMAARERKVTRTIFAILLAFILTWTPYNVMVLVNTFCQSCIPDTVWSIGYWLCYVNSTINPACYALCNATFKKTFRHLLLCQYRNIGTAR

[4] = biological target: Sigma non-opioid intracellular receptor 1 (Homo sapiens) (UniProt Q99720); test: Sigma 1 Eurofins-Panlabs radioligand binding assay; set-up: ligand concentration 8 nM; details: Compound concentration 10.0 uM
Chain of Sigma non-opioid intracellular receptor 1 (Homo sapiens) (Q99720 whole entry): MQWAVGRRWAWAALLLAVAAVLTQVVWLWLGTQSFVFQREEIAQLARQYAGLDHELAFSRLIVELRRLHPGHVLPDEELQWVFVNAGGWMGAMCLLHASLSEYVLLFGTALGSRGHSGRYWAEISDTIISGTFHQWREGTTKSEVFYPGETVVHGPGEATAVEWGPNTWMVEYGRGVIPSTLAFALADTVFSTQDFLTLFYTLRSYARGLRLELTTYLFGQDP

[5] = biological target: T1, Alpha-1D adrenergic receptor (Homo sapiens) (UniProt P25100); test: Inhibition of Adrenergic alpha1D at 10 µM in the Eurofins-Panlabs radioligand binding assay (Eurofins_assay_203400); details: Compound concentration 10.0 uM
T1 sequence (whole entry): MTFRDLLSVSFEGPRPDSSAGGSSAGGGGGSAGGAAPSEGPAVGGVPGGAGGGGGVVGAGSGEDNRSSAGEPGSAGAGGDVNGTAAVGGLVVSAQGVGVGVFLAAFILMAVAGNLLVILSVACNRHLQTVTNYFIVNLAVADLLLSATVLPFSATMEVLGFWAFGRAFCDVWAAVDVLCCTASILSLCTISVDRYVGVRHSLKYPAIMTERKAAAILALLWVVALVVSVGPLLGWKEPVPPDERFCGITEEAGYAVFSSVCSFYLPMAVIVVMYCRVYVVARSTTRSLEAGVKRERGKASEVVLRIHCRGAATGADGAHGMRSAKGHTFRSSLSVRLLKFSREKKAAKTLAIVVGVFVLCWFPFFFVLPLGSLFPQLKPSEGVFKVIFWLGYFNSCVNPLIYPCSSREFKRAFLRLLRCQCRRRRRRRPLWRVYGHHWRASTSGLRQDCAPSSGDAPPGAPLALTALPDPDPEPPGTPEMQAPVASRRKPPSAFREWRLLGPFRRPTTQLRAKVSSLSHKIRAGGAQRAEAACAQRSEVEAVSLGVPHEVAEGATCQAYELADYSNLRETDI

[6] = biological target: Adenosine Transporter (Cavia porcellus) (UniProt H0V4R7+H0UUG1+H0V3Z5); test: Inhibition of Transporter, Adenosine at compound concentration of 10.0 uM in the Eurofins-Panlabs radioligand binding assay (Eurofins_assay_202000); type: protein assay; set-up: ligand concentration 0.5 nM, non-specific ligand with concentration 5 uM Nitrobenzylthioinosine, incubation time 30 min, incubation temperature 25 C; details: Compound concentration 10.0 uM
[7] = biological target: L-type calcium channel, dihydropyridine site (Cav1.2 alpha-1C) (Homo sapiens, UniProt Q13936); test: Inhibition of Calcium Channel L-Type, Dihydropyridine at 10 µM in the Eurofins-Panlabs radioligand binding assay (Eurofins_assay_214600); set-up: ligand concentration 0.1 nM, non-specific ligand with concentration 1 µM Nitrendipine, incubation time 90 min, incubation temperature 25 °C; details: Wistar, rat, rat cerebral cortex preparation, probe [3H] Nitrendipine, 0.1 nM; compound concentration 10 uM; target entry is the homologue from another species
Chain of L-type calcium channel, dihydropyridine site (Cav1.2 alpha-1C) (Q13936 whole entry): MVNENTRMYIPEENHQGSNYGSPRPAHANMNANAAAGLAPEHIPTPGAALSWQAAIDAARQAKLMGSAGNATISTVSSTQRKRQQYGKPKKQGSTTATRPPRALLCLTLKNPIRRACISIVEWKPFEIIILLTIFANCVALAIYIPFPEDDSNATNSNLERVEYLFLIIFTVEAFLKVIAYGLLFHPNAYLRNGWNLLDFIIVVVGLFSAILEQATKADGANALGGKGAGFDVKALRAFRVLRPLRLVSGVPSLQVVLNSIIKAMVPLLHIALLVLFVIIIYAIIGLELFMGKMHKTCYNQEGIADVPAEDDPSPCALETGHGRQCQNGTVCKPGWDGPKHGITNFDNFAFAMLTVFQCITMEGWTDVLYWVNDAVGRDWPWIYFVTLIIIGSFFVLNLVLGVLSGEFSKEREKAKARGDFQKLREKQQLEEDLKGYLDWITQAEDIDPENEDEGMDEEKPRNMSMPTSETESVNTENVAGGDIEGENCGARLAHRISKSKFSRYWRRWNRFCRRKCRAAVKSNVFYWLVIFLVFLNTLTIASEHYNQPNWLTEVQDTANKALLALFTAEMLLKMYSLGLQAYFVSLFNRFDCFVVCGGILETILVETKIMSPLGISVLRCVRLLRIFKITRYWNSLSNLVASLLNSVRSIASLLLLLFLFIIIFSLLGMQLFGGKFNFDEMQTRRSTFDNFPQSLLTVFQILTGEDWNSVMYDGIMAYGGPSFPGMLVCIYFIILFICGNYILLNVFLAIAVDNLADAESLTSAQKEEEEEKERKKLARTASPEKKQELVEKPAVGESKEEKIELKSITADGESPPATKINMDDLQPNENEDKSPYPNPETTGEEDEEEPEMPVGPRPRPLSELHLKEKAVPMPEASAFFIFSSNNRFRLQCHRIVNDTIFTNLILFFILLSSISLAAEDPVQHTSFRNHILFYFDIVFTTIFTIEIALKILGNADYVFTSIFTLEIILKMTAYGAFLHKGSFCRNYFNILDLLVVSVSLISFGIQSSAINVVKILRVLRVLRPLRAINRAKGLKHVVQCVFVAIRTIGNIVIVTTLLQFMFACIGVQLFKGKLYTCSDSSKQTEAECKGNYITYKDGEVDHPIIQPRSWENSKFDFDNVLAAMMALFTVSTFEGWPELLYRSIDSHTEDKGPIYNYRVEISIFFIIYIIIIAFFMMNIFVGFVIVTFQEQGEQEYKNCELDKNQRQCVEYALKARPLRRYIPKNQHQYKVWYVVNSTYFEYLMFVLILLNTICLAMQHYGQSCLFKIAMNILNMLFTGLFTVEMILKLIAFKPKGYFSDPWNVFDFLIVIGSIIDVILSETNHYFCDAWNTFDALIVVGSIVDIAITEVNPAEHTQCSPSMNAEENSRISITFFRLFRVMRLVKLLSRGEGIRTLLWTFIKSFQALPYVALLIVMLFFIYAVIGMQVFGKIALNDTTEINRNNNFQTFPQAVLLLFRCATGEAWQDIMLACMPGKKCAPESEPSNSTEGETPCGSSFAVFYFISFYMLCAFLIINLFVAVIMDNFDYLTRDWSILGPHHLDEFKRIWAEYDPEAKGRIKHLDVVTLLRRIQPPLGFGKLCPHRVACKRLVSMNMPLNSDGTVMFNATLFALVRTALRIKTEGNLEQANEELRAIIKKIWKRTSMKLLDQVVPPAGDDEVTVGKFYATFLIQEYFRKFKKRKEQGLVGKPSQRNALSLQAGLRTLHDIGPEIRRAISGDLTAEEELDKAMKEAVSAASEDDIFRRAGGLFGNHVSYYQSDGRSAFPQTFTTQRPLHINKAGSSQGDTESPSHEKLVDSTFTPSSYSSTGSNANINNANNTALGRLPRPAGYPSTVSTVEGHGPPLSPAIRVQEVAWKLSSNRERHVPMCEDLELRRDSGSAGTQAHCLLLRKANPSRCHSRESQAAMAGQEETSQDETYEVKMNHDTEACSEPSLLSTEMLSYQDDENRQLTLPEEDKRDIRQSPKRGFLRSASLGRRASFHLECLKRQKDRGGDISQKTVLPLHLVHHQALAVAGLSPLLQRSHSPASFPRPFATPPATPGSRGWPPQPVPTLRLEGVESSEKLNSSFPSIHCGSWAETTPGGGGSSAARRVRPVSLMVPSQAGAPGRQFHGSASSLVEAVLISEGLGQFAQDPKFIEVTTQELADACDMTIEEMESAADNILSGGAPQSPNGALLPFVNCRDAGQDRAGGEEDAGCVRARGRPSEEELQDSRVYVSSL

[8] = biological target: Mu-type opioid receptor (Homo sapiens) (UniProt P35372); details: Compound concentration 10.0 uM
Chain of Mu-type opioid receptor (Homo sapiens) (P35372 whole entry): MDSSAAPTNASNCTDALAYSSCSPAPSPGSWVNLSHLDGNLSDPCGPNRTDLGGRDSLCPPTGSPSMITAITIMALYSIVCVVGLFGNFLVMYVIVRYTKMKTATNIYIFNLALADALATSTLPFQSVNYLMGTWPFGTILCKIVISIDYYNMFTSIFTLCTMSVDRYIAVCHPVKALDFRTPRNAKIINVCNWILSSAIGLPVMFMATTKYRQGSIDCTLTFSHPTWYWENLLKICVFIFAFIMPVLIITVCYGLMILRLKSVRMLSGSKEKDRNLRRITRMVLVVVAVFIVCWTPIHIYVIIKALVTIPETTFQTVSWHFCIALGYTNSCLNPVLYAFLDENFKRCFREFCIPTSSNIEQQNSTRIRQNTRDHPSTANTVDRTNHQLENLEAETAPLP

Homo sapiens = species: Homo sapiens; test: Inhibition of Phosphodiesterase PDE4 at compound concentration of 10.0 uM in the Eurofins-Panlabs enzyme assay (Eurofins_assay_154000); type: protein assay; set-up: substrate with concentration 1.01 uM [3 H]cAMP + cAMP, incubation time 20 min, incubation temperature 25 C; details: Compound concentration 10.0 uM
CYP3A4 = CYP3A4 (Homo sapiens, UniProt P08684); test: CYP450, 3A4 Eurofins-Panlabs enzyme assay; details: compound concentration 10 uM
[9] = biological target: D(2) dopamine receptor (Homo sapiens) (UniProt P14416); details: Compound concentration 10.0 uM
[10] = biological target: Beta-2 adrenergic receptor (Homo sapiens) (UniProt P07550); details: Compound concentration 10.0 uM
[11] = biological target: Melanocortin receptor 3 (Homo sapiens) (UniProt P41968); test: Inhibition of Melanocortin MC3 at 10 µM in the Eurofins-Panlabs radioligand binding assay (Eurofins_assay_251300); set-up: ligand concentration 0.035 nM; details: Compound concentration 10.0 uM
Chain of Melanocortin receptor 3 (Homo sapiens) (P41968 whole entry): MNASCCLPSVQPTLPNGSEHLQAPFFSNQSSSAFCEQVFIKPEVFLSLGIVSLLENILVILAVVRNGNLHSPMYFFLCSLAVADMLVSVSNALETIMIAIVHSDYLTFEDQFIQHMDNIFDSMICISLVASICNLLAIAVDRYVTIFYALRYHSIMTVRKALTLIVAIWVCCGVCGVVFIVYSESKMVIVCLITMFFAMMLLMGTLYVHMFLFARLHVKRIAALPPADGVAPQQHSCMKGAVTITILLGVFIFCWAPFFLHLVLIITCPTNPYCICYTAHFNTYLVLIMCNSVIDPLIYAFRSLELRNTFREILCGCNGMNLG

Cannabinoid receptor 1 [12] = biological target: T2, Cannabinoid receptor 1 (Homo sapiens, UniProt P21554)
T2 sequence (P21554 whole entry): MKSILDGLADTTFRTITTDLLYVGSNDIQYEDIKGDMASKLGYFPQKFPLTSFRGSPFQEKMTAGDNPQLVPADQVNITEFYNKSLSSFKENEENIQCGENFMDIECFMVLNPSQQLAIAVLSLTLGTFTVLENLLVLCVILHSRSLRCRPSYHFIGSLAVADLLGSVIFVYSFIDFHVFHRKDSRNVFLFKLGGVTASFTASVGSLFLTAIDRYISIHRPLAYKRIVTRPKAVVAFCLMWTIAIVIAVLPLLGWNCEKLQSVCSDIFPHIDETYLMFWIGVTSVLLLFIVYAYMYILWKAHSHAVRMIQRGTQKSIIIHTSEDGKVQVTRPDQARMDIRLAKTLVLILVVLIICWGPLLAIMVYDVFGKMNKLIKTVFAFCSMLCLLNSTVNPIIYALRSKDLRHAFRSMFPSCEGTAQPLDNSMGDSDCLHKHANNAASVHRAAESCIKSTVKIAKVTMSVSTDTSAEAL

[13] = biological target: Glucocorticoid receptor (Homo sapiens) (UniProt P04150); details: Compound concentration 10.0 uM
Cannabinoid receptor 1 [14] = biological target: T2, Cannabinoid receptor 1; test: Inhibition of Cannabinoid CB1 at compound concentration of 10.0 uM in the Eurofins-Panlabs radioligand binding assay (Eurofins_assay_217030); set-up: ligand concentration 2 nM, non-specific ligand with concentration 10 uM R(+)-WIN-55,212-2, incubation time 90 min, incubation temperature 37 C
[15] = biological target: Sodium-dependent serotonin transporter (Homo sapiens) (UniProt P31645); details: Compound concentration 10.0 uM
Chain of Sodium-dependent serotonin transporter (Homo sapiens) (P31645 whole entry, looked up): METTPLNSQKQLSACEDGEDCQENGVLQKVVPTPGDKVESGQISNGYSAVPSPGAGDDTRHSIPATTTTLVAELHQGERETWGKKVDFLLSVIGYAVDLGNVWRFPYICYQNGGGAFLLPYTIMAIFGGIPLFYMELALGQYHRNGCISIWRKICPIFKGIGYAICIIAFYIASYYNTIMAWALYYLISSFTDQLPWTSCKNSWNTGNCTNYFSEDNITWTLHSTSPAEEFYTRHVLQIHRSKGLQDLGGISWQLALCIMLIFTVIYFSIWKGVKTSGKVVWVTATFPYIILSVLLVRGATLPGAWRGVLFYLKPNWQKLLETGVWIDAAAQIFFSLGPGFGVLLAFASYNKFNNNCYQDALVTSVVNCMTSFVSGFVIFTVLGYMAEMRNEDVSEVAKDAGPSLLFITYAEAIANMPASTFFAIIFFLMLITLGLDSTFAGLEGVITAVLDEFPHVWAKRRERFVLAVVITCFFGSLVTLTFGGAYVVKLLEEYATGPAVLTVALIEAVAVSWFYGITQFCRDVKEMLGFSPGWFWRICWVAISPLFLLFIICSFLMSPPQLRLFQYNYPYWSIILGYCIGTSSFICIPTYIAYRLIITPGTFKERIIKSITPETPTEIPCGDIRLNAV

Compound `O=C(NCc1ncc(C(F)(F)F)cc1Cl)c1ccc2c(c1)C1(CCS(=O)(=O)CC1)[C@H](C1CC1)N2S(=O)(=O)c1ccc(F)cc1` [BAY-784] has an inhibition [1] of 50%, an inhibition (Caspase-1 (Homo sapiens)) of 8% and an inhibition [2] of -4%. The inhibition [3] was 2%, the inhibition [4] was 15% and the inhibition [5] was 18%. For the same compound, the inhibition [6] was 25%, the inhibition at 90 min, 10 µM [7] was 26% (not active) and the inhibition [8] was 16%. For the same compound, the inhibition (Homo sapiens) was 2%, the inhibition at 10 µM (CYP3A4) was 38% (not active) and the inhibition [9] was 4%. The inhibition [10] was -4%, the inhibition [11] was -7% and the inhibition (Cannabinoid receptor 1 [12]; Compound concentration 3.0 uM) was 52%. The inhibition (Cannabinoid receptor 1 [12]; Compound concentration 10.0 uM) was 73%, the inhibition [13] was 13% and the Ki (Cannabinoid receptor 1 [14]) was 2.57 µM. It also gave an inhibition [15] of 10%.
